{"source": "patent US11179474B1", "about": "“Nanoparticle-based liver-targeting therapy and imaging” (priority 2015, dated 2021)", "molecules": {"B1": {"name": "GNP-GalC2(50)-AL(50)-(Ac)YFLTTRQ (peptide)", "peptide": "YFLTTRQ", "modifications": "not fully specified (N-terminus); printed as GNP-GalC2(50)-AL(50)-(Ac)YFLTTRQ; also: linked via amino linker NH2-EG6-SH to gold nanoparticle with galactose-C2 corona", "notes": "Gold nanoparticle with a corona of galactose-C2-SH and amino linker in approximately 50:50 ratio; also called Au@GalC2:AL:AL-(Ac)-YFLTTRQ"}, "B2": {"name": "GNP-GalC2-HSPEG8COOH-HSPEG8CO… ″high loading″ (peptide)", "peptide": "RLNVGGTYFLTTRQ", "modifications": "not fully specified (N-terminus); also: on gold nanoparticle with galactose-C2 corona", "notes": "Gold nanoparticle with a corona of galactose-C2 and HSPEG8COOH ligands; Approximately 4 peptides per nanoparticle core, so the copy number is approximate; also called \"high loading\" Au@Gal-C2:HSPEG8COOH:HSPEG8CO… GNPs"}, "B3": {"name": "GNP-GalC2-HSPEG8COOH-HSPEG8CO… ″low loading″ (peptide)", "peptide": "RLNVGGTYFLTTRQ", "modifications": "not fully specified (N-terminus); printed as GNP-GalC2-HSPEG8COOH-HSPEG8CONHRLNVGGTYFLTTRQ ″low loading″; also: on gold nanoparticle with galactose-C2 corona", "notes": "Same construct as the high loading GNP but with fewer peptides per nanoparticle; also called \"low loading\" Au@Gal-C2:HSPEG8COOH:HSPEG8CO… GNPs"}}, "key": {"[1]": {"test_system": "HepG2", "experiment": "MTT cell viability assay, payload-carrying LacLL nanoparticles vs free drug", "assay_type": "cell-based, human", "settings": "for IC50: HepG2, concentration based on drug amount, FIG. 7: 72 h after treatment", "procedure": "The human hepatocellular carcinoma cell line HepG2 was used in the assay.\nHepG2 cells were grown in a T-75 flask. For the transfer of the cell the medium was removed from the flask and the cells were trypsinated for 5 minutes. The cells were collected in a Falcon tube and diluted with complete cell medium. The cell counting was conducted in a Neubauer chamber. A cell solution was prepared to seed 4000 cells per well (200 μL per well). The microtiter plate was incubated for 24 h at 37° C.\nFor each NP and drug, formulations in cell medium were prepared. The compounds were tested in different concentrations (0.01, 0.05, 0.2, 1, 5, 25 and 125 μM based on drug amount). For the treatment, the cell medium was removed from all wells and exchanged for drug formulations. 200 μl of treatments per triplicate was added to each well. The microtiter plates were incubated for 24 h, 48 h and 72 h at 37° C.\n1.5 mL MTT solution (8.0 mg in 1.6 mL DMSO) was diluted with complete cell medium (phenol-red free). The treatment cell medium was removed from the microtiter plate, the wells were washed with 100 μL PBS and 100 μL of the MTT reactive solution was added to each well. After one hour incubation at 37° C. the MTT solution was removed and 100 μL DMSO was added to dissolve the formazan dye. Absorbance was measured at 570 nm.\nData were analysed using OriginPro8. The normalized data were plotted and the curve was fitted using a non-linear regression curve fit (sigmoidal dose-response curve with variable slope). The Absolute IC50 values were obtained by interpolation."}, "[2]": {"test_system": "HCC cells", "experiment": "In vitro targeting of GNPs to HCC cells (counts per field at 20x magnification)", "assay_type": "cell-based", "settings": "relative to base GNP lacking the peptide", "from_the_text": "(SEQ ID NO: 1), via its N-terminus (approx. 4 peptide molecules per nanoparticle).\nSeveral base/peptide targeted GNPs were screened in vitro. GNPs having a mixed corona comprising galactose-C2-SH (Gal-C2) ligands and HSPEG8COOH were synthesised according to methodology analogous to that described above in Examples 1 and 2, with however galactose-C2-SH replacing glucose-C2-SH and HSPEG8COOH (also abbreviated SH-EG6-COOH or SH—(OCH2CH2)6-COOH) replacing the amino linker NH2-EG6-SH.\nThe glypican-3 peptide described in U.S. Pat. No. 8,388,937B2 (the contents of which are expressly incorporated herein by reference)—see SEQ ID NO: 1 thereof, which has the amino acid sequence: […] (SEQ ID NO: 1) was linked to the terminal COOH group of a proportion of the HSPEG8COOH ligands via the N-terminus of said peptide. In a “high loading” GNP construct (see row 1 in the table below), approximately 4 peptides were linked per nanoparticle core. The “high loading” Au@Gal-C2:HSPEG8COOH:HSPEG8CONH[…] The “low loading” Au@Gal-C2:HSPEG8COOH:HSPEG8CONH[…]"}, "[3]": {"biological_target": "T1, glypican-3 (on HCC cells) (UniProt P51654 25-554)", "T1 construct": "whole, on cells; also called GLY-3", "T1 sequence (P51654 25-554 limits assumed, form in doubt)": "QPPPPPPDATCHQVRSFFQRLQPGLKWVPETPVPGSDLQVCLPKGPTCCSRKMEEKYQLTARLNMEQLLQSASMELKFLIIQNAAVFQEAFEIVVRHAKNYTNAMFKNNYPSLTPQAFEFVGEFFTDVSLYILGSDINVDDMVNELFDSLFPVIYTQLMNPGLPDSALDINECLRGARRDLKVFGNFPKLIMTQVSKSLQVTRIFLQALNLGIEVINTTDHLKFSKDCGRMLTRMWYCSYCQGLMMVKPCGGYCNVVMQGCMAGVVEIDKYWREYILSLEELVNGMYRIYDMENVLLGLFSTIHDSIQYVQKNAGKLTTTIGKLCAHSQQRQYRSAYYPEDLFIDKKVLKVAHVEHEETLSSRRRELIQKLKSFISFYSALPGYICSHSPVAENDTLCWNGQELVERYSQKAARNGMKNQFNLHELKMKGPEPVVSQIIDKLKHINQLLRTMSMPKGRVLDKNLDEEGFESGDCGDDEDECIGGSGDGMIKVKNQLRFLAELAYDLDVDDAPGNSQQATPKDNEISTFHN", "experiment": "in vitro targeting of GNPs to HCC cells, relative to base nanoparticle lacking the peptide"}, "[4]": {"biological_target": "T1, glypican-3 (on HCC cells)", "experiment": "in vitro targeting of GNPs to HCC cells, counts per field at 20x magnification, relative to base GNP lacking the peptide"}, "[5]": {"biological_target": "T1, glypican-3 (on HCC cells)", "experiment": "in vitro targeting of GNPs to HCC cells, relative to base GNP lacking the peptide"}}, "note": "Where no end group is shown, it is not given here."}
{"molecule": "COc1cccc2c1C(=O)c1c(O)c3c(c(O)c1C2=O)C[C@@](O)(C(=O)CO)C[C@@H]3O[C@H]1C[C@H](N)[C@H](O)[C@H](C)O1", "note": "[Doxorubicin, doxorubicin]", "values": [{"measurement": "cytotoxicity, free drug compared with pay-loaded nanoparticle", "setting": "[1]; HepG2, MTT", "result": "slightly higher cytotoxicity"}]}
{"molecule": "GNP-GalC2(50)-AL(50)-(Ac)YFLTTRQ", "values": [{"measurement": "Fold-targeting (over base particle)", "setting": "[2]; listed as Au@GalC2:AL:AL-(Ac)-YFLTTRQ", "result": "approximately 5 fold"}]}
{"molecule": "GNP-GalC2-HSPEG8COOH-HSPEG8CONHRLNVGGTYFLTTRQ ″high loading″ (not fully specified (N-terminus); also: on gold nanoparticle with galactose-C2 corona)", "values": [{"measurement": "Fold-targeting (over base particle)", "setting": "[2]; listed as “high loading” Au@Gal-C2:HSPEG8COOH:HSPEG8CONHRLNVGGTYFLTTRQ", "result": "approximately 7 fold"}]}
{"molecule": "GNP-GalC2-HSPEG8COOH-HSPEG8CONHRLNVGGTYFLTTRQ ″low loading″ (not fully specified (N-terminus); printed as GNP-GalC2-HSPEG8COOH-HSPEG8CONHRLNVGGTYFLTTRQ ″low loading″; also: on gold nanoparticle with galactose-C2 corona)", "values": [{"measurement": "Fold-targeting (over base particle)", "setting": "[2]; listed as “low loading” Au@Gal-C2:HSPEG8COOH:HSPEG8CONHRLNVGGTYFLTTRQ", "result": "approximately 4.6 fold"}]}
{"molecule": "platinum-(IV)-succinate", "values": [{"measurement": "IC50", "setting": "[1]", "result": 38.6, "unit": "µM"}, {"measurement": "IC50", "setting": "[1]; listed as Pt(IV)-succinate", "result": 38.6, "unit": "µM"}]}
{"molecule": "B1", "values": [{"measurement": "Fold-targeting (over base particle)", "setting": "[3]", "result": 5, "unit": "fold"}]}
{"molecule": "B2", "values": [{"measurement": "Fold-targeting (over base particle)", "setting": "[4]", "result": 7.1, "unit": "fold"}]}
{"molecule": "B3", "values": [{"measurement": "Fold-targeting (over base particle)", "setting": "[5]", "result": 4.6, "unit": "fold"}]}
